Test results taken from patent US12325696B2, “Indazole derivative, preparation method therefor, and pharmaceutical application thereof” (JIANGSU HENGRUI MEDICINE CO., LTD., priority 2019, dated 2025).
pIC50: −log10 of the molar value.

What was measured:
Type in all cases: cell-based
MCF7 D538G = test: Inhibition of proliferation of MCF7 cell expressing ERα D538G mutant; conditions: Homo sapiens, 144 hours; for Emax: read-out: Maximum inhibition
From the text: (§1) The mutants ERα Y537S and ERα D538G of human estrogen receptor α (ERαs) protein were obtained by site-directed mutagenesis using the cDNA of wild-type ESR1 gene (Accession No. NM000125) as a template according to double-primer PCR. The primer sequences used for mutagenesis are as follows (the nucleotides underlined are the sites of mutagenesis):
(§2) The cDNA of mutant ESR1 was cloned into the target lentiviral vector pCDH-CMV-MCS-EF1-Puro (SBI, CD510B-1). The lentiviral plasmid with the mutant ESR1 gene sequence and the lentiviral packaging plasmids pVSV-G and pCMV-dR8.91 (SBI, LV500A-1) were transfected into HEK-293T cells (ATCC, CRL-3216) by Lipofectamine 3000 Transfection Reagent (ThermoFisher Scientific, Cat #L3000075). 48 hours after the transfection, the supernatant of the virus-containing DMEM high-glycemic medium (GE Healthcare, SH30243.01) containing 10% FBS was filtered, and ultracentrifuged to obtain the virus pellet. The virus pellet was resuspended in an appropriate amount of MEM medium (GE Healthcare, SH30024.01) containing 10% FBS, non-essential amino acids (SIGMA, M7145-100ML) and sodium pyruvate (SIGMA, S8636-100ML), and the resulting suspension was added to MCF7 cells (ATCC, HTB-22). Polybrene (SIGMA, H9268-5G) at a final concentration of 8 µg/ml was added, and the cells were incubated overnight. Two days after the transfection, […] puromycin (invitrogen, A11138-03) was added to the cell culture medium for resistance screening. After about two weeks, the MCF7 cell line capable of stably expressing ERαY537S and ERα D538G mutants was obtained.
(§3) MCF7 cells expressing ERα mutant were cultured in MEM (GE Healthcare, SH30024.01) complete medium containing 10% fetal bovine serum. On the first day of the experiment, the cells were seeded in a 96-well plate with the complete medium at a density of 3,000 cells/well (100 μl of cell suspension per well), and the plate was incubated in a cell incubator at 37° C. and 5% CO2 overnight. On the second day, the medium in each well was replaced with 135 μl of MEM incomplete medium containing 2% fetal bovine serum. 15 μl of test compound solution of different concentrations formulated with the incomplete medium was added to each well, wherein the final concentrations of the compound were nine concentration points obtained by a 4-fold gradient dilution starting from 100 nM. A blank control containing 0.500 DMSO was set. The plate was incubated in a cell incubator at 37° C. and 500 CO2 for 144 hours. On the eighth day, the 96-well plate was taken out, and 150 of CellTiter-Glo® Luminescent Cell Viability Assay (Promega, G7573) was added to each well. The plate was left to stand at room temperature for 10 minutes, and the luminescence signal values were measured using a multi-label microplate reader (PerkinElmer, VICTOR 3). The IC50 values of the inhibitory activity of the compounds were calculated based on the concentrations and luminescence signal values of the compounds using Graphpad Prism software.

MCF7 ERαY537S = test: Inhibition of proliferation of MCF7 cell expressing ERα Y537S mutant; conditions: Homo sapiens, 144 hours; for Emax: read-out: Maximum inhibition
From the text: as §1, §2, §3

[1] = system: estrogen receptor reporter gene; test: Inhibition of estrogen receptor reporter gene activity (ERE-luc luciferase) in MCF7/ERE-luc cells; conditions: Homo sapiens, 0.1 nM β-estradiol, 20 hours, read-out: IC50 of inhibitory activity on the activity of the estrogen receptor reporter gene
Method: MCF7 cells MCF7/ERE-luc (ATCC, HTB-22) expressing the luciferase reporter gene ERE-luc (synthesized by GENEWIZ, Inc.) controlled by the estrogen receptor response element were cultured in MEM (GE Healthcare, SH30024.01) medium containing 10% fetal bovine serum and 500 µg/ml G418. On the first day of the experiment, MCF7/ERE-luc cells were seeded in a 96-well plate with incomplete MEM medium containing 10% fetal bovine serum treated with activated charcoal (BioSun, BS-0004-500) at a density of 30,000 cells/well (100 μl of cell suspension per well), and the plate was incubated in a cell incubator at 37° C. and 5% CO2 overnight. On the second day, 10 μl of β-estradiol (SIGMA, E2758-250MG) solution formulated with the above incomplete medium or test compound solution of different concentrations formulated with the above incomplete medium was added to each well, wherein the final concentration of β-estradiol was 0.1 nM, and the final concentrations of the compound were nine concentration points obtained by a 10-fold gradient dilution starting from 10 μM, a blank control containing 0.5% DMSO was set, and the plate was incubated in a cell incubator at 37° C. and 5% CO2 for 20 hours. On the third day, the 96-well plate was taken out, and 100 μl of ONE-Glo™ Luciferase Assay system (Promega, E6110) was added to each well to determine the activity of luciferase. The plate was left to stand at room temperature for 3 minutes until the cells were fully lysed, and the luminescence signal values were measured using a multi-label microplate reader (PerkinElmer, VICTOR 3). The IC50 values of the inhibitory activity of the compounds were calculated using Graphpad Prism software based on the concentrations and luminescence signal values of the compounds.
The inhibitory effect of the compounds of the present disclosure on the activity of the estrogen receptor reporter gene was determined by the above test. A graph of the chemiluminescence signal values versus the logarithmic concentrations of the compound was made using Graghpad Prism.

MCF7 cell = test: Inhibition of proliferation of MCF7 cell (CellTiter-Glo, 144 hours); conditions: Homo sapiens; for pIC50: MCF7, CellTiter-Glo, read-out: IC50 of the inhibitory effect on the proliferation of MCF7 cell; for Emax: MCF7 cell proliferation, read-out: Maximum inhibition
Method: as §3, with “cells (ATCC, HTB-22)” for “cells expressing ERα mutant”, “experiment, MCF7” for “experiment, the”, “containing 0.5%” for “containing 0.500”, “and 5%” for “and 500”, “150 μl” for “150”
A graph of the chemiluminescence signal values versus the logarithmic concentrations of the compound was made using Graghpad Prism to obtain the IC50 values of the compound.

pIC50 (MCF7 D538G) | pIC50 (MCF7 ERαY537S) | pIC50 [1] | pIC50 (MCF7 cell) | Structure (SMILES) | Emax (MCF7 D538G) [%] | Emax (MCF7 ERαY537S) [%] | Emax (MCF7 cell) [%]
8.40 | 8.15 | 8.10 | 9.52 | CC#CC(=O)N1CCC(Oc2ccc(/C(=C(/CC(F)(F)F)c3ccccc3)c3ccc4[nH]nc(F)c4c3)cn2)CC1 [Example 10, (Z)-1-(4-((5-(4,4,4-Trifluoro-1-(3-fluoro-1H-indazol-5-yl)-2-phenylbut-1-en-1-yl)pyridin-2-yl)oxy)piperidin-1-yl)but-2-yn-1-one] | 104 | 86 | 104
9.00 | 9.00 | 8.52 | 9.30 | CC#CC(=O)N1CCC[C@@H](Oc2ccc(/C(=C(/CC(F)(F)F)c3ccccc3)c3ccc4[nH]nc(F)c4c3)cn2)C1 [Example 25, (R,Z)-1-(3-((5-(4,4,4-Trifluoro-1-(3-fluoro-1H-indazol-5-yl)-2-phenylbut-1-en-1-yl)pyridin-2-yl)oxy)piperidin-1-yl)but-2-yn-1-one] | 112 | 107 | 109
9.00 | 8.70 | 8.52 | 9.52 | C=CC(=O)N1CCC[C@@H](Oc2ccc(/C(=C(/CC(F)(F)F)c3ccccc3)c3ccc4[nH]nc(F)c4c3)cn2)C1 [Example 26, (R,Z)-1-(3-((5-(4,4,4-Trifluoro-1-(3-fluoro-1H-indazol-5-yl)-2-phenylbut-1-en-1-yl)pyridin-2-yl)oxy)piperidin-1-yl)prop-2-en-1-one] | 111 | 104 | 103
8.52 | 8.70 | 8.52 | 9.40 | CN(C)C(=O)/C=C/CN1CC[C@@H](Oc2ccc(/C(=C(/CC(F)(F)F)c3ccccc3)c3ccc4[nH]nc(F)c4c3)cn2)C1 [Example 29, (E)-N,N-Dimethyl-4-((R)-3-((5-((Z)-4,4,4-trifluoro-1-(3-fluoro-1H-indazol-5-yl)-2-phenylbut-1-en-1-yl)pyridin-2-yl)oxy)pyrrolidin-1-yl)but-2-enamide] | 93 | 93 | 93

Continued, compound first:

Structure (SMILES) | pIC50 (MCF7 D538G) | pIC50 (MCF7 ERαY537S) | pIC50 [1] | pIC50 (MCF7 cell) | Emax (MCF7 D538G) [%] | Emax (MCF7 ERαY537S) [%] | Emax (MCF7 cell) [%]
CNC(=O)/C=C/CN1CCC[C@@H](Oc2ccc(/C(=C(/CC(F)(F)F)c3ccccc3)c3ccc4[nH]nc(F)c4c3)cn2)C1 [Example 11, (E)-N-Methyl-4-((R)-3-((5-((Z)-4,4,4-trifluoro-1-(3-fluoro-1H-indazol-5-yl)-2-phenylbut-1-en-1-yl)pyridin-2-yl)oxy)piperidin-1-yl)but-2-enamide] | 9.00 | 8.70 | 8.52 | 9.30 | 100 | 107 | 110
O=C(/C=C/CN1CCC[C@@H](Oc2ccc(/C(=C(/CC(F)(F)F)c3ccccc3)c3ccc4[nH]nc(F)c4c3)cn2)C1)NC1CCOCC1 [Example 13, (E)-N-(Tetrahydro-2H-pyran-4-yl)-4-((R)-3-((5-((Z)-4,4,4-trifluoro-1-(3-fluoro-1H-indazol-5-yl)-2-phenylbut-1-en-1-yl)pyridin-2-yl)oxy)piperidin-1-yl)but-2-enamide] | 8.52 | 8.30 | 8.52 | 9.22 | 107 | 104 | 88
CC(C)(C)NC(=O)/C=C/CN1CCC[C@@H](Oc2ccc(/C(=C(/CC(F)(F)F)c3ccccc3)c3ccc4[nH]nc(F)c4c3)cn2)C1 [Example 16, (E)-N-(Tert-butyl)-4-((R)-3-((5-((Z)-4,4,4-trifluoro-1-(3-fluoro-1H-indazol-5-yl)-2-phenylbut-1-en-1-yl)pyridin-2-yl)oxy)piperidin-1-yl)but-2-enamide] | 8.70 | 8.40 | 8.30 | 9.10 | 110 | 88 | 102
O=C(/C=C/CN1CCC[C@@H](Oc2ccc(/C(=C(/CC(F)(F)F)c3ccccc3)c3ccc4[nH]nc(F)c4c3)cn2)C1)NC1CCCC1 [Example 17, (E)-N-Cyclopentyl-4-((R)-3-((5-((Z)-4,4,4-trifluoro-1-(3-fluoro-1H-indazol-5-yl)-2-phenylbut-1-en-1-yl)pyridin-2-yl)oxy)piperidin-1-yl)but-2-enamide] | 8.52 | 8.52 | 8.22 | 9.22 | 104 | 102 | 96
CN(C)C(=O)/C=C/CN1CCC(Nc2ccc(/C(=C(/CC(F)(F)F)c3ccccc3)c3ccc4[nH]nc(F)c4c3)cn2)CC1 [Example 33, (E)-N,N-Dimethyl-4-(4-((5-((Z)-4,4,4-trifluoro-1-(3-fluoro-1H-indazol-5-yl)-2-phenylbut-1-en-1-yl)pyridin-2-yl)amino)piperidin-1-yl)but-2-enamide] | 9.00 | 8.70 | 8.52 | 9.52 | 106 | 105 | 105
CN(C)C(=O)/C=C/CN[C@@H]1CCN(c2ccc(/C(=C(/CC(F)(F)F)c3ccccc3)c3ccc4[nH]nc(F)c4c3)cn2)C1 [Example 34, (E)-N,N-Dimethyl-4-(((R)-1-(5-((Z)-4,4,4-trifluoro-1-(3-fluoro-1H-indazol-5-yl)-2-phenylbut-1-en-1-yl)pyridin-2-yl)pyrrolidin-3-yl)amino)but-2-enamide] | 9.00 | 9.00 | 8.52 | 9.70 | 101 | 105 | 103
